Active and inactive are the calls of the source.
Tests used:
[1] = cells
[2] = HEp-2 cell cytotoxicity, dose response, cytotoxicity control for RSV inhibitor project, HTS (AID 2410); type: functional; conditions: human respiratory syncytial virus
[3] = target: T1, Luciferin 4-monooxygenase (Photinus pyralis, UniProt P08659); assay: firefly luciferase enzyme inhibitors, dose response, biochemical, luminescence (AID 1891)
[4] = inhibitors of firefly luciferase expression or activity, dose response, H4 neuroglioma cells, luminescence (AID 1990); type: functional, cell-based
[5] = cytotoxicity in HEK-293T cells, dose response, cytotoxicity control for TCR NF-kB inhibitor project, luminescence, T-cell screen hits (AID 489026); type: functional, cell-based;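 further: cells exposed to compound about 14 hours before the viability readout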
[6] = CEM21 lymphoblast cell cytotoxicity, dose response, cytotoxicity control for viral fusion inhibitor project, CellTiter-Glo luminescence, cherry-picked (AID 652042); type: functional, cell-based;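 further: potency for signal decrease meaning cytotoxicity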
[7] = inhibitors of HIV Env-driven cell fusion, dose response, cherry-pick (AID 652057); type: functional, cell-based
[8] = off-target signal loss in HeLa-CEM21 co-culture – HeLa F-luc CTL cells, cherry-picked, counter-screen for HIV-1 Env fusion inhibitor project, dose response (AID 652040); type: functional, cell-based;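 further: potency for signal decrease marking cytotoxic or nonspecific inhibition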
[9] = Fluorescence Cell-Based Dose Response to Identify Inhibitors of Thrombin Receptor-Activating Peptide SFLLRN-Mediated P-Selectin Induction on Platelets. [Related pubchem assays: 1663 (Primary HTS), 1889 (retest at dose ), 1891 (counterscreen), 1678 (Project Summary)]; type: functional
[10] = tested on: HT-1080; assay: cytotoxicity in HT1080 fibrosarcoma cells, cell-based, fluorescence readout (AID 620); type: functional; conditions: Homo sapiens
[11] = inhibitors of clade B AD8 Env fusion, dose response, cell-based, cherry-pick (AID 652062); type: functional;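 further: luciferase signal from cell-cell fusion driven by HIV-1 clade B AD8 Env; potency is for inhibitors of fusion seen as a drop in luminescence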
[12] = target: T2, Heat shock factor protein 1 (Mus musculus, UniProt P38532); assay: inhibition of MG132-induced HSE-luciferase signal, confirmation, cell-based, NIH3T3, luminescence, dose retest (AID 2382); type: functional;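 further: NIH3T3 fibroblasts with HSF1-driven luciferase reporter stressed by proteasome inhibitor MG132; luminescence from HSF1-driven luciferase expression after 8 hours of MG132 stress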
T2 sequence (P38532 whole entry): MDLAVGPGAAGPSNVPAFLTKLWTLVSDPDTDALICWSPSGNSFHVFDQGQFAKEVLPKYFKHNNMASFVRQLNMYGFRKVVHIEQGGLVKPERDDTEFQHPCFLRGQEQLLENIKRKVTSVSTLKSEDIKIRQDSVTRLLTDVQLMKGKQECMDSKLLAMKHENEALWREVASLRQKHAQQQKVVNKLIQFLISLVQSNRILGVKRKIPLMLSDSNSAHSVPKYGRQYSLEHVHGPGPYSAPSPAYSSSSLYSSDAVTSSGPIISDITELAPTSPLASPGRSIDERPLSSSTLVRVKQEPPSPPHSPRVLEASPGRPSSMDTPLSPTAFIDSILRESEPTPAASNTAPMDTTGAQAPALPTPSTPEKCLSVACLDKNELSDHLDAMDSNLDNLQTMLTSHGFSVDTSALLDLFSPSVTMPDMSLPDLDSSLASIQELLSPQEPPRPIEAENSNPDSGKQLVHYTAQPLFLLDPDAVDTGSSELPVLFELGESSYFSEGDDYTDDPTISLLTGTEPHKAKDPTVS

[13] = inhibitors of SNCA 5'UTR-driven reporter translation, confirmation, H4 neuroglioma cells, luminescence (AID 1988); type: functional, cell-based
[14] = Luminescence Cell-Based Dose Confirmation HTS to Identify Inhibitors of Platelet Dense Granule Release. [Related pubchem assays: 1663 (Primary HTS), 1678 (Summary of Project)]; type: functional
[15] = target: T1, Luciferin 4-monooxygenase; assay: Counter Screen for Luciferase-based Assay Positives. [Related pubchem assays: 620, 618, 411 ]
[16] = Luminescence-based counterscreen assay for KLF5 inhibitors: dose response cell-based high throughput screening assay to identify cytotoxic compounds using the IEC-6 intestinal epithelial cell line. [Related pubchem assays: 1700 (Primary screen.), 1834 (Confirmation screen.), 1858 (Summary AID.), 1905 (Counterscreen.)]; type: functional
[17] = Luminescence Cell-Based Dose Response HTS to Identify Inhibitors of 5'UTR Stem-Loop Driven Prion Protein mRNA Translation in H4 Neuroglioblastoma Cells. [Related pubchem assays: 1827 (Project Summary), 1813 (Primary HTS)]; type: functional
[18] = ZM109 Env clade C HIV-1 fusion inhibitors, dose response, HeLa effector, CEM target cells, luciferase, cherry-pick (AID 652058); type: functional, cell-based
[19] = target: T3, Microphthalmia-associated transcription factor (Homo sapiens, UniProt O75030); assay: TRPM1 promoter luciferase signal decrease, dose response, MITF inhibitor project, cell-based, SK-MEL-5, cherry-picked, set 3 (AID 493073); type: functional
T3 sequence (O75030 whole entry): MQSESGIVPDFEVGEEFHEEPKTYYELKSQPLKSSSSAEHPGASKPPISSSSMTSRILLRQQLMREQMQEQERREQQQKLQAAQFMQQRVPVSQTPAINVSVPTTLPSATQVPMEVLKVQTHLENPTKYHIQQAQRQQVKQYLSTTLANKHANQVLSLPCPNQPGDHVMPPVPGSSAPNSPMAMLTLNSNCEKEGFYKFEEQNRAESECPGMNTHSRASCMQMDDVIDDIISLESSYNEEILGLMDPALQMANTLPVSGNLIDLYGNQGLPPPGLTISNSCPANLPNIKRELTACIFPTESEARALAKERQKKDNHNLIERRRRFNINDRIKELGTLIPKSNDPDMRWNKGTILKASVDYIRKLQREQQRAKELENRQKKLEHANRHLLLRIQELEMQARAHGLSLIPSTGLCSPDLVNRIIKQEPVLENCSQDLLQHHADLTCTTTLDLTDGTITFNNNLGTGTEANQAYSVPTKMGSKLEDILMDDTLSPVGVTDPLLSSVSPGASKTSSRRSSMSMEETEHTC

[20] = tested on: Streptococcus sp. 'group A'; assay: growth inhibition of control SK(-) GAS strain, dose response, counter-screen for streptokinase expression inhibitor project, luminescence, kanamycin, BacTiterGlo, confirmation (AID 1900); type: functional, organism-based
[21] = cells; type: functional, cell-based
[22] = tested on: INS1; assay: beta cell apoptosis inhibitors, cytokine rescue, dose response, luminescence, retest (AID 449756); type: functional, cell-based; conditions: Rattus norvegicus;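 further: cell death triggered by IL-1 beta plus TNF-alpha plus IFN-gamma mixture; protective hits raise ATP signal compared with cytokine alone wells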
[23] = inhibitors of intracellular T. cruzi replication, confirmation, NIH3T3 host cells, beta-gal luminescence (AID 2044); type: functional, cell-based;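 further: intracellular parasites grown in NIH/3T3 mouse fibroblasts as host cells; luminescent beta-galactosidase reporter signal from transgenic T. cruzi replicating inside host cells; inhibitors lower the luminescence signal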
[24] = tested on: Streptococcus; assay: Group A Streptococcus viability loss, dose response, counter-screen for streptokinase expression inhibitor project, luminescence, BacTiterGlo (AID 1915); type: functional, organism-based;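 further: potency for reduction of bacterial viability or growth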
[25] = cells; type: functional, cell-based; remark: listed apart in the source
[26] = cytotoxicity toward NIH3T3 fibroblasts, dose response, counter-screen, cell-based, ATP luminescence, mouse fibroblasts (AID 2010); type: functional;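 further: cells exposed to compound for about 90 hours before reading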
[27] = target: Eukaryotic translation initiation factor 4H (Homo sapiens, UniProt Q15056); assay: human eIF4H binding inhibitors, primary screen, translation initiation inhibitor project, biochemical, uHTS, fluorescence polarization (AID 2012)
[28] = target: Polyadenylate-binding protein 1 (Homo sapiens, UniProt P11940); assay: PABP poly(A) RNA binding inhibitors, primary screen, biochemical, fluorescence polarization, uHTS (AID 2014)
Polyadenylate-binding protein 1, sequence (P11940 whole entry, the tested form may be a part): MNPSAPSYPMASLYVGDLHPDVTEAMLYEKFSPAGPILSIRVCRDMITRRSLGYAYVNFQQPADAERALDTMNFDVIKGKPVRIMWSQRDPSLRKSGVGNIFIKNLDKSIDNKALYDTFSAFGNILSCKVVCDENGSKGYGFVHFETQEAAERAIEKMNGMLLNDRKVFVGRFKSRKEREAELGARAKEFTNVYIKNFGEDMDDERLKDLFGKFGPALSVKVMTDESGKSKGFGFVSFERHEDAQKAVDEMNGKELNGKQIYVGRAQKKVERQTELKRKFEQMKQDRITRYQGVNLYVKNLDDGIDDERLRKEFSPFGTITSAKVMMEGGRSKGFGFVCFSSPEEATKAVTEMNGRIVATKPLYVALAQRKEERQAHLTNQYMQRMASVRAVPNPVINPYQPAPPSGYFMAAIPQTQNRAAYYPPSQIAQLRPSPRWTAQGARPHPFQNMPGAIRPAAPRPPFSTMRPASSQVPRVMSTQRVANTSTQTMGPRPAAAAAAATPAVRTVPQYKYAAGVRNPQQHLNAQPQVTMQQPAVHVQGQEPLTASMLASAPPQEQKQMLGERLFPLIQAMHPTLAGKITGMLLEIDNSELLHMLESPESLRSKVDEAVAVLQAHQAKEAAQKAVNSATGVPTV

[29] = target: T4, Estrogen receptor (Homo sapiens, UniProt P03372); assay: potentiators of ERα–SRC-1 coactivator binding, dose response, biochemical, TR-FRET, ERα LBD (AID 737)
T4 sequence (P03372 whole entry): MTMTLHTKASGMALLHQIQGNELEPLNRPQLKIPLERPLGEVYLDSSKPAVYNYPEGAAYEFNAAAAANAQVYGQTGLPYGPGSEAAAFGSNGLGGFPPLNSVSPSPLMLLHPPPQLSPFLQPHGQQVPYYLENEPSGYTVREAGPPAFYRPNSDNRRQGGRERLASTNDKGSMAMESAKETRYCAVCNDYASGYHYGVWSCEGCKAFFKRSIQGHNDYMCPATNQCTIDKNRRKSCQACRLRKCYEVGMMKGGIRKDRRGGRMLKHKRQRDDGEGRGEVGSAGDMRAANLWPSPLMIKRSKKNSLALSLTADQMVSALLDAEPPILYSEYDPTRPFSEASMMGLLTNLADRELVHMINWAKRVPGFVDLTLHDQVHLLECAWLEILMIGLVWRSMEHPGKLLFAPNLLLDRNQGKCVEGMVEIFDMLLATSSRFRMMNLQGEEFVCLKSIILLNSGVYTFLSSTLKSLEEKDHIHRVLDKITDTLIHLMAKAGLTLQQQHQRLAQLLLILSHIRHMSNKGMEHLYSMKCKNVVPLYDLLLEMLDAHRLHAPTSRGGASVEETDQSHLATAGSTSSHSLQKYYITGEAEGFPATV

[30] = target: T5, RNA-binding protein pos-1 (Caenorhabditis elegans, UniProt G5EF15); assay: inhibitors of POS-1/mex-3 RNA binding, dose response, biochemical, fluorescence polarization (AID 1964);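 further: purified POS-1 fused to maltose binding protein made in E. coli; potency of compounds blocking POS-1 binding to fluorescent RNA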
T5 sequence (G5EF15 whole entry): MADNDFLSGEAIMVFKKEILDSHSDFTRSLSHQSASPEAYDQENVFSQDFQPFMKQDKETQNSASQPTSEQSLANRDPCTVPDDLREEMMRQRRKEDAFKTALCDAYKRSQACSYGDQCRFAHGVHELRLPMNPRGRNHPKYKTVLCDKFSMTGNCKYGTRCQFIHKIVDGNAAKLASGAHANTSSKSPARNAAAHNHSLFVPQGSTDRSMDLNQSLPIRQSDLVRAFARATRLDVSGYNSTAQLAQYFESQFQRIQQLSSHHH

[31] = target: T6, Long-chain-fatty-acid--AMP ligase FadD28 (Mycobacterium tuberculosis, UniProt P9WQ59); assay: Fluorescence polarization aasay to screen for inhibitors that compete for the binding of FadD28 to a bisubstrate Measured in Biochemical System Using Plate Reader - 2147-01_Inhibitor_Dose_CherryPick_Activity.; type: functional, Mycobacterium tuberculosis H37Rv
T6 sequence (P9WQ59 whole entry): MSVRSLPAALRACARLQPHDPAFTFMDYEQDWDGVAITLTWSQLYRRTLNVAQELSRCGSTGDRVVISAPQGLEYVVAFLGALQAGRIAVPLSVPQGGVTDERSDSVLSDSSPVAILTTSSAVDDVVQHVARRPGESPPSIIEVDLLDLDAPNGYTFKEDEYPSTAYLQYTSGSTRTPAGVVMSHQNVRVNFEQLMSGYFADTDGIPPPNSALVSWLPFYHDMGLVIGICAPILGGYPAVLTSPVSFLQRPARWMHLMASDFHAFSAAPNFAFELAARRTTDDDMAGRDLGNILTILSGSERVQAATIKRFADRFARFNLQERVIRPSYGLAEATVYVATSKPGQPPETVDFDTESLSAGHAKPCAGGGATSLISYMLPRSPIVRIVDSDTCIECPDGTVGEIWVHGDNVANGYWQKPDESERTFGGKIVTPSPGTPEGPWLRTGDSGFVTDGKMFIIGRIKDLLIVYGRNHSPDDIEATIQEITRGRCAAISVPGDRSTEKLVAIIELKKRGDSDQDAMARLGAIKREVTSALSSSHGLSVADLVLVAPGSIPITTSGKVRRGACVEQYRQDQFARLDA

[32] = enhancers of respiration in Yfh1-depleted yeast, dose response, Friedreich's ataxia, plus single-dose screen (AID 1465); type: functional;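 further: yeast depleted of Yfh1p frataxin homolog grown on glycerol needing respiration; WST-1 tetrazolium dye reduction as measure of cellular dehydrogenase metabolic activity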
[33] = target: Large T antigen (Simian virus 40, UniProt P03070); type: functional, Betapolyomavirus macacae;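 further: Confirmatory-stage PubChem screen for compounds that inhibit SV40 T antigen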
Large T antigen, sequence (P03070 whole entry): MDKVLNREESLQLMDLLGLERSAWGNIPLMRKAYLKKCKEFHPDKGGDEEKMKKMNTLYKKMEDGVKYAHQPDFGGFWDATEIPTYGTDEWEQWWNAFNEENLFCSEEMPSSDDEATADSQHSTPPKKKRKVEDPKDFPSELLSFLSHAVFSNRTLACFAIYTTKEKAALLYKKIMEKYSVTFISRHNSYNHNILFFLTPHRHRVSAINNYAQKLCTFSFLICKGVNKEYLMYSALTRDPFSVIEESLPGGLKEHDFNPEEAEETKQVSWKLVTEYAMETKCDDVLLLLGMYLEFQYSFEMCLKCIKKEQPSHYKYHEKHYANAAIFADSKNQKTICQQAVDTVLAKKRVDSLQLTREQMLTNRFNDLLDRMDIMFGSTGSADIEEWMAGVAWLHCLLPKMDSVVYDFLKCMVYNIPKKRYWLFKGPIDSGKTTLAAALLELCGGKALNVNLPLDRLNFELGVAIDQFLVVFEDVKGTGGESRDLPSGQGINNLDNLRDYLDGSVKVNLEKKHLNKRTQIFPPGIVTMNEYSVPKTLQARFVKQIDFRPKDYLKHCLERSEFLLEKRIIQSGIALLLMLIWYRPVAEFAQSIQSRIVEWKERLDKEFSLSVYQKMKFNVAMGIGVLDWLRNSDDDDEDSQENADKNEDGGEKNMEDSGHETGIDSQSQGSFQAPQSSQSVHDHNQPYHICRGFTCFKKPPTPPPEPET

T1 sequence (P08659 whole entry): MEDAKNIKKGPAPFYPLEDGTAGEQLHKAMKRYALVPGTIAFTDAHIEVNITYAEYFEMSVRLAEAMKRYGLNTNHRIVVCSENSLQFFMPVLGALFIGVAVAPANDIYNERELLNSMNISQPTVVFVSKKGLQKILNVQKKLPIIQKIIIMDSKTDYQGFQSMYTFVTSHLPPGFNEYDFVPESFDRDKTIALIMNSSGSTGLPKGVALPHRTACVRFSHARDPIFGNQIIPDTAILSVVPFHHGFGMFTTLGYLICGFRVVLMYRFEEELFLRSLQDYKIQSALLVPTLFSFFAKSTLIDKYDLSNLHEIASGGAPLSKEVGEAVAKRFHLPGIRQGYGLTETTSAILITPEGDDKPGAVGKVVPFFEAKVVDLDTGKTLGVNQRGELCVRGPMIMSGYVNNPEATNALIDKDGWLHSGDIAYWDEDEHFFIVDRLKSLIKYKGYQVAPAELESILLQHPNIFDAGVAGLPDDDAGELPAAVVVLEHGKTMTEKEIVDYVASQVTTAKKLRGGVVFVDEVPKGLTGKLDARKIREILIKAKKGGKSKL

SMILES: COc1cccc(C(=O)Nc2cc(NC(=O)c3cccs3)ccc2C)c1OC
- IC50 [1]: 48.3 µM (active)
- CC50 [2]: 38.2 µM (active)

SMILES: COC(=O)c1nn(-c2ccc3c(c2)CCN3C(C)=O)cc1O
- EC50 [3]: 15.8 µM (active)
- EC50 [4]: 2.45 µM (inconclusive)
- IC50 [5]: > 80 µM (inactive)
- AC50 [6]: 45.5 µM (active)
- AC50 [7]: 5.72 µM (active)
- AC50 [8]: 3.07 µM (active)
- EC50 [9]: < 100 µM (not active)
- EC50 [10]: > 50 µM (not active)
- AC50 [11]: 6.43 µM (active)
- EC50 [12]: 0.665 µM (active)
- EC50 [13]: 1.78 µM (active)
- EC50 [14]: 1.06 µM (active)
- EC50 [15]: > 100 µM (not active)
- IC50 [16]: > 39.8 µM (not active)
- EC50 [17]: 0.29 µM (active)
- AC50 [18]: 18.5 µM (active)

SMILES: COc1ccc(C(=O)N/N=C/c2cc(Br)ccc2O)cc1OC
- AC50 [19]: 4.76 µM (active)
- EC50 [20]: 0.959 µM (active)
- EC50 [21]: > 350 µM (not active)
- AC50 [22]: 1.97 µM (active)
- EC50 [23]: 3.76 µM (active)
- IC50 [16]: 12.2 µM (not active)
- EC50 [24]: 5.78 µM (active)
- EC50 [25]: 11.3 µM (active)
- EC50 [26]: > 60 µM (not active)

SMILES: CCCOc1ccc(-c2nnc(-c3cccs3)o2)cc1
- EC50 [10]: > 50 µM (not active)
- EC50 [15]: 7.29 µM (active)

SMILES: CCn1/c(=N/C(=O)c2ccc(N3C(=O)CCC3=O)cc2)sc2c(OC)ccc(OC)c21
- IC50 [27]: 14.7 µM (active)
- IC50 [28]: > 100 µM (inactive)
- EC50 [29]: 7.94 µM (active)

SMILES: O=C(O)c1cc(-c2ccc(/C=C3\NC(=O)N(c4ccc(Cl)cc4)C3=O)o2)ccc1Cl
- IC50 [1]: 23.2 µM (active)
- EC50 [30]: 39.7 µM (active)
- AC50 [31]: 19.5 µM (active)

SMILES: N#C/C(=C\c1ccc(N2CCOCC2)o1)C(=O)Nc1ccc(O)cc1
- EC50 [32]: > 100 µM (active)
- IC50 [33]: 15.2 µM (active)
